Data taken from publication PMC4447944 (The Journal of Biological Chemistry, 2015).

Key:
hSGK2 = target: T1, hSGK2 (Homo sapiens, UniProt Q9HBY8); test: KINOMEscan; format: binding
T1 construct: purchased DiscoverX (KINOMEscan platform)

hSNRK = target: T2, hSNRK (Homo sapiens, UniProt Q9NRH2); test: KINOMEscan; format: binding
T2 construct: purchased DiscoverX (KINOMEscan platform)

hRSK1(Kin.Dom.2-C-term) = target: T3, hRSK1(Kin.Dom.2-C-term) (Homo sapiens, UniProt Q15418); test: KINOMEscan; format: binding
T3 construct: hRSK1(Kin.Dom.2-C-term); purchased DiscoverX (KINOMEscan platform)

hFGFR2 = target: T4, hFGFR2 (Homo sapiens, UniProt P21802); test: KINOMEscan; format: binding
T4 construct: purchased DiscoverX

hBLK = target: T5, hBLK (Homo sapiens, UniProt P51451); test: KINOMEscan; format: binding
T5 construct: purchased DiscoverX

hMEK1 = target: T6, hMEK1 (Homo sapiens, UniProt Q02750); test: KINOMEscan; format: binding
T6 construct: purchased DiscoverX

hDDR2 = target: T7, hDDR2 (Homo sapiens, UniProt Q16832); test: KINOMEscan; format: binding
T7 construct: purchased DiscoverX (KINOMEscan platform)

hFGFR3(G697C) = target: T8, hFGFR3(G697C) (Homo sapiens, UniProt P22607, G697C); test: KINOMEscan; format: binding
T8 construct: purchased DiscoverX

mono-methyl-Lys370 p53 = test: Meso Scale Discovery sandwich ELISA mono-methyl-Lys370 p53/total p53, KYSE-150 cells stably expressing FLAG-SMYD2; format: cell-based; settings: Homo sapiens; KYSE-150 stably expressing SMYD2, sandwich ELISA, 24 h
Procedure: Cell lysates were subject to 10% SDS-PAGE and transferred to a PVDF membrane. Each membrane was blocked in Odyssey Blocking Buffer (LI-COR Biosciences) and incubated with monoclonal anti-p53 (D01) antibody (Abcam, ab1101) or rabbit anti-p53 Lys^370me1 antibody (a kind gift from Dr. Shelley Berger) followed by detection with IRDye®680RD goat anti-mouse IgG (LI-COR Biosciences) and IRDye800CW goat anti-rabbit IgG (LI-COR Biosciences) on the Odyssey Imager (LI-COR Biosciences). […] 4–8 h later, cells were treated with 0–25 μM compound for 15 h. […] 24 h later, cells were lysed with 200 μl of MSD Tris Lysis Buffer^TM (Meso Scale Discovery). A MULTI-ARRAY^TM 96-well plate (Meso Scale Discovery, catalog number L15XA-3) was precoated with 2 μg/ml custom-made methyl-p53 antibody (Lampire) in PBS overnight at 4 °C. 150 μl/well MSD Blocking Solution A^TM (final concentration of 3%) was added followed by shaking at room temperature for 1 h. The plate was washed three times with 1× MSD Tris Wash Buffer^TM (Meso Scale Discovery). 0.5 μg of cell lysate in 25 μl/well MSD Tris Lysis Buffer was added, followed by shaking overnight at 4 °C. […] Following a final wash three times with 1× MSD Tris Wash Buffer, 150 μl/well 1× MSD Read Buffer^TM (Meso Scale Discovery) was added, and plates were read on an MSD SECTOR^TM Imager 6000 instrument (Meso Scale Discovery).

hRIOK3 = target: T9, hRIOK3 (Homo sapiens, UniProt O14730); test: KINOMEscan; format: binding
T9 construct: purchased DiscoverX (KINOMEscan platform)

hLZK = target: T10, hLZK (Homo sapiens, UniProt O43283); test: KINOMEscan; format: binding
T10 construct: purchased DiscoverX (KINOMEscan platform)

hMET(M1250T) = target: T11, hMET(M1250T) (Homo sapiens, UniProt P08581, M1250T); test: KINOMEscan; format: binding
T11 construct: purchased DiscoverX

hD2L = hD2L (Homo sapiens, UniProt P14416); test: cAMP Agonist (Eurofins-CEREP); settings: @ 10 μM
hSNARK = target: T12, hSNARK (Homo sapiens, UniProt Q9H093); test: KINOMEscan; format: binding
T12 construct: purchased DiscoverX (KINOMEscan platform)

hSTK33 = target: T13, hSTK33 (Homo sapiens, UniProt Q9BYT3); test: KINOMEscan; format: binding
T13 construct: purchased DiscoverX (KINOMEscan platform)

hJAK2(JH1Dom.-catalytic) = target: T14, hJAK2(JH1Dom.-catalytic) (Homo sapiens, UniProt O60674); test: KINOMEscan; format: binding
T14 construct: hJAK2(JH1Dom.-catalytic); purchased DiscoverX (KINOMEscan panel)

hADRα1A = target: T15, hADRα1A (Homo sapiens, UniProt P35348); test: Calcium Mobilization Agonist (Eurofins-CEREP); settings: @ 13.3 μM
T15 sequence (P35348 1-466): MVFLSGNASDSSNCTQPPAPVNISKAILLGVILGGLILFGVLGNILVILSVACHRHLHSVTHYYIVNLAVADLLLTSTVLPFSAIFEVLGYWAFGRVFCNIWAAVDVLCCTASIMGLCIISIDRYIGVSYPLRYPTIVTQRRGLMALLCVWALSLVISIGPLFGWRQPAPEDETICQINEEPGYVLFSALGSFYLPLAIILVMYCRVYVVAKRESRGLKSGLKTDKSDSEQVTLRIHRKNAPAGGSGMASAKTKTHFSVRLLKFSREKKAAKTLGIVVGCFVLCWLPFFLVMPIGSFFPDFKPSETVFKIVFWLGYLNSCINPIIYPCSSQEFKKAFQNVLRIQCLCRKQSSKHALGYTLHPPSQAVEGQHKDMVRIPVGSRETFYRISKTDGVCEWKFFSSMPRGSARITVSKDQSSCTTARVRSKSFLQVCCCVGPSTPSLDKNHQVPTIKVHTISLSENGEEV

hEPHA3 = target: T16, hEPHA3 (Homo sapiens, UniProt P29320); test: KINOMEscan; format: binding
T16 construct: purchased DiscoverX

hGRK1 = target: T17, hGRK1 (Homo sapiens, UniProt Q15835); test: KINOMEscan; format: binding
T17 construct: purchased DiscoverX

hTESK1 = target: T18, hTESK1 (Homo sapiens, UniProt Q15569); test: KINOMEscan; format: binding
T18 construct: purchased DiscoverX

hSYK = target: T19, hSYK (Homo sapiens, UniProt P43405); test: KINOMEscan; format: binding
T19 construct: purchased DiscoverX (KINOMEscan platform)

hBTK = target: T20, hBTK (Homo sapiens, UniProt Q06187); test: KINOMEscan; format: binding
T20 construct: purchased DiscoverX

hEGFR = target: T21, hEGFR (Homo sapiens, UniProt P00533); test: KINOMEscan; format: binding
T21 construct: purchased DiscoverX

hIKK-epsilon = target: T22, hIKK-epsilon (Homo sapiens, UniProt Q14164); test: KINOMEscan; format: binding
T22 construct: purchased DiscoverX (KINOMEscan panel)

T8 sequence (P22607 23-806 G697C): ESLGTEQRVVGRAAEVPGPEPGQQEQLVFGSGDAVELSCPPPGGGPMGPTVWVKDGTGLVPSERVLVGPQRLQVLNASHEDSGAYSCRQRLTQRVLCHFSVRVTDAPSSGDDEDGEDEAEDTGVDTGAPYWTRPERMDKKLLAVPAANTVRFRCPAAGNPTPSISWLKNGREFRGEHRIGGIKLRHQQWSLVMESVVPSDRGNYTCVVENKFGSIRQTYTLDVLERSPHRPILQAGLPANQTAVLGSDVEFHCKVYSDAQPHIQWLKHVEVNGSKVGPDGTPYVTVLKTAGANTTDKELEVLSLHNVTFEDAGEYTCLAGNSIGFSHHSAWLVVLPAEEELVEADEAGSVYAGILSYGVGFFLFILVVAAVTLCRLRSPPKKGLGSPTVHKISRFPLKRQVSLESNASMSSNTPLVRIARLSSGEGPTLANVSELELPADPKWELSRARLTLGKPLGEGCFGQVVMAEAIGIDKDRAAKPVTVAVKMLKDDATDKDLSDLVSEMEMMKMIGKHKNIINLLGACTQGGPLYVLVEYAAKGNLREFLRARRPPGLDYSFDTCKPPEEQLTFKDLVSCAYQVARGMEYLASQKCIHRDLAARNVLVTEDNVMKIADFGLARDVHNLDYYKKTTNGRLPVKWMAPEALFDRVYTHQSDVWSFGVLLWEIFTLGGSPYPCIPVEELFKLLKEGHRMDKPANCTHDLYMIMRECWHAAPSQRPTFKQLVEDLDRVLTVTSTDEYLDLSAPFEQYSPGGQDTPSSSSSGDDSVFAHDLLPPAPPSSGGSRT
T9 sequence (O14730 whole entry): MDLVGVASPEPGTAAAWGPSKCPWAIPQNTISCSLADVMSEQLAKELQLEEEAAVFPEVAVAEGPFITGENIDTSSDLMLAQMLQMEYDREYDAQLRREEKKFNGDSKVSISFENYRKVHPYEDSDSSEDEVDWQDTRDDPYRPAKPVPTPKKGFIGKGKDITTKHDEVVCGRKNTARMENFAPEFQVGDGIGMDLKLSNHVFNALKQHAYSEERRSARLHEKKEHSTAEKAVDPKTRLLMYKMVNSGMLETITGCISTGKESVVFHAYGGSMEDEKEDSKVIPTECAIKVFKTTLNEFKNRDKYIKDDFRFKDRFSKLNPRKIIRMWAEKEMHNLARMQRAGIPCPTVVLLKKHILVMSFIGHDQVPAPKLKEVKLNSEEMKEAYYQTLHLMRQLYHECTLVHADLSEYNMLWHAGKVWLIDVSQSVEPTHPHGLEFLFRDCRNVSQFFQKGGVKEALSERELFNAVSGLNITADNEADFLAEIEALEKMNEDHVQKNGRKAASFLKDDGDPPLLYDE
T14 sequence (O60674 849-1124 limits assumed): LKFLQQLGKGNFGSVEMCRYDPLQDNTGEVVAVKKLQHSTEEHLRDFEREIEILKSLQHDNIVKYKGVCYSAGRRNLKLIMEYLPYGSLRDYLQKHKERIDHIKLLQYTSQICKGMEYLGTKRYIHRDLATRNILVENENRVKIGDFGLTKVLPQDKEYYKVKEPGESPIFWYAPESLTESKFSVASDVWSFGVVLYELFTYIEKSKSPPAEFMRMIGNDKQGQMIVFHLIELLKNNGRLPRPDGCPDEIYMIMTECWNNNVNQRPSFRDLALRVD
T12 sequence (Q9H093 whole entry): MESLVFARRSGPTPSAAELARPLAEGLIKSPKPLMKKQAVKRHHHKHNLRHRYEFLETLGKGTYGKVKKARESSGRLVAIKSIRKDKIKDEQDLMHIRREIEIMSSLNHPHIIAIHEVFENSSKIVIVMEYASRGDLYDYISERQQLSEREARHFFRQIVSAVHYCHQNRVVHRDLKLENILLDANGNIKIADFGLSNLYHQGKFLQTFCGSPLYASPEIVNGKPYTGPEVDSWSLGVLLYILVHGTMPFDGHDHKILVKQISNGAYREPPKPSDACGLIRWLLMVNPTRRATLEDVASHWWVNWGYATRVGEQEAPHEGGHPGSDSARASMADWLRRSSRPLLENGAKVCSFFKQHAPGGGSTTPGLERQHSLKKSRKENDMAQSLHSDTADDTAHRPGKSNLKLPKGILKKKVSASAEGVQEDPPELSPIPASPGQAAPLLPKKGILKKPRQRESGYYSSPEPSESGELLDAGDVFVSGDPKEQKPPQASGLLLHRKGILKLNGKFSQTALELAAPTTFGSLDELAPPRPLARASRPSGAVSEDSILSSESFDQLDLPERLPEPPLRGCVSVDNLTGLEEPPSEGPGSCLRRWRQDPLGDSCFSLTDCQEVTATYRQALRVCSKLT
T5 sequence (P51451 whole entry): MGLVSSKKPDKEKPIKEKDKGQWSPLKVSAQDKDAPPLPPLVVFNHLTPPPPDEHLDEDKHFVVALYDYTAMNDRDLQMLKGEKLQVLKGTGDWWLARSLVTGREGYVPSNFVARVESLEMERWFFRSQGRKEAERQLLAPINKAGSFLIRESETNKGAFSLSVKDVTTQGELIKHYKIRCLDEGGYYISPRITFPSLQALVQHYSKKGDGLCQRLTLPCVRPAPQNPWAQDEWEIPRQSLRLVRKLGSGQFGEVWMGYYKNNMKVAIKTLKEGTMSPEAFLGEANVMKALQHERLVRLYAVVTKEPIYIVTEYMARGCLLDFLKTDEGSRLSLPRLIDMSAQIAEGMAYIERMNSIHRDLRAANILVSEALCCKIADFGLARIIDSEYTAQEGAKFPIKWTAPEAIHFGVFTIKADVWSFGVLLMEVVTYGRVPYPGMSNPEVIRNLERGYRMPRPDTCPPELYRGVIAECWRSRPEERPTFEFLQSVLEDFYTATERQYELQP
Chain of hD2L (P14416 whole entry): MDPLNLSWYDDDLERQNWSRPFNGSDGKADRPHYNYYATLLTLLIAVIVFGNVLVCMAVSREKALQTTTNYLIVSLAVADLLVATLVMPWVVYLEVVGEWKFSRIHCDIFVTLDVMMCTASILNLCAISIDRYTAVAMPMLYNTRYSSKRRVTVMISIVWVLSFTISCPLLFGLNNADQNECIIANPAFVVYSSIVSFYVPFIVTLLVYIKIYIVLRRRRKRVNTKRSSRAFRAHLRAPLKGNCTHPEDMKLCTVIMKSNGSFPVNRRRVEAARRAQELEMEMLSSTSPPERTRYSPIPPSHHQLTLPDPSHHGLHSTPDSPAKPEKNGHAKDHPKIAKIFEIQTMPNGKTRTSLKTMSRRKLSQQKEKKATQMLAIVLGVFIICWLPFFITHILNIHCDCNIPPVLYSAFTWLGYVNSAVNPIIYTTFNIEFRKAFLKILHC
T13 sequence (Q9BYT3 whole entry): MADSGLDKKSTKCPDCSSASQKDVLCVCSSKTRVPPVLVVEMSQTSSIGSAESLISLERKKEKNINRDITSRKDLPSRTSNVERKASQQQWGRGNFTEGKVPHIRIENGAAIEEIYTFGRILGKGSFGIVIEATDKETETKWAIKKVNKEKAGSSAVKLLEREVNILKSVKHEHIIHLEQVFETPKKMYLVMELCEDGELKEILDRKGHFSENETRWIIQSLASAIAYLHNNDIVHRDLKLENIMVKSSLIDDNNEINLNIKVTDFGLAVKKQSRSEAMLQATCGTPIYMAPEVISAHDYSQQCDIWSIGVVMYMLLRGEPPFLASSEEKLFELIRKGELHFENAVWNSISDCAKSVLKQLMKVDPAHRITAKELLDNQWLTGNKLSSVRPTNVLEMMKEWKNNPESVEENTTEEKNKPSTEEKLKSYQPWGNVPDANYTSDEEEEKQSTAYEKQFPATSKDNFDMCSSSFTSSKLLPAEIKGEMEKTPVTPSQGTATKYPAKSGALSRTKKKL
T6 sequence (Q02750 whole entry): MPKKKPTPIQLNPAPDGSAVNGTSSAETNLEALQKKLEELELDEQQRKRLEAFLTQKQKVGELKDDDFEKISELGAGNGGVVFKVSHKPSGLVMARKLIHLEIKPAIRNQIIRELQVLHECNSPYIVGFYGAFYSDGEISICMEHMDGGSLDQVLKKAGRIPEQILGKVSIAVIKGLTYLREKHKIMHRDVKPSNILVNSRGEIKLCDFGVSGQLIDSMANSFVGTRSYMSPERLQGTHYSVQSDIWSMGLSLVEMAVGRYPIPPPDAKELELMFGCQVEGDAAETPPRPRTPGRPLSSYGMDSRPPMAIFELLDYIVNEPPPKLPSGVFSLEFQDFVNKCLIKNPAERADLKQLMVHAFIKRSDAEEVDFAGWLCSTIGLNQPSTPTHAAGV
T4 sequence (P21802 22-821): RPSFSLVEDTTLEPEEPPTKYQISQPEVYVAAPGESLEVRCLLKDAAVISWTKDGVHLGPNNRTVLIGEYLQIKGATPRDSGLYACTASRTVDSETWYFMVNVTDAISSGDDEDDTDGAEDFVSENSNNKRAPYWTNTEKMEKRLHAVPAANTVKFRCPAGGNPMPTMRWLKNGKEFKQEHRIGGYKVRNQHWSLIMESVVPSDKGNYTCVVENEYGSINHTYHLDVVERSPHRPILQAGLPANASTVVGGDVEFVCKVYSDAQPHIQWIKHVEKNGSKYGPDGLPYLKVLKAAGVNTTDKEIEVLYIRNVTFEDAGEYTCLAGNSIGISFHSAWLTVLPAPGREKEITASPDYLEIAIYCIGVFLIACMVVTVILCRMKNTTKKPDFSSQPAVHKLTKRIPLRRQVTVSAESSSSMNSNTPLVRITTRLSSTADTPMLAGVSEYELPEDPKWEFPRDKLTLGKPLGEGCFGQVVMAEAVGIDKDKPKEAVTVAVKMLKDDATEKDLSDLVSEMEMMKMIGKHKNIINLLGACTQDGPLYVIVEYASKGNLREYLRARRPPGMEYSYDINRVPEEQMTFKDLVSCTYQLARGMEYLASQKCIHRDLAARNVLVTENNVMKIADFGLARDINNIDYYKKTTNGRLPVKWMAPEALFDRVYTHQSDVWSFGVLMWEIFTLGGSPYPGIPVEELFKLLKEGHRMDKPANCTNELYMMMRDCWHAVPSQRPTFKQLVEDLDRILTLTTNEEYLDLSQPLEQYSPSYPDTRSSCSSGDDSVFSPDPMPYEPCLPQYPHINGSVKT

In the case of Cc1cn(CCN2CCN(c3ccccc3-c3cc(C#N)cc(C(=O)NCCCN4CCCC4)c3)CC2)c2ccccc12 [LLY-507, 3-cyano-5-{2-[4-[2-(3-methylindol-1-yl)ethyl]piperazin-1-yl]-phenyl}-N-[(3-pyrrolidin-1-yl)propyl]benzamide], the IC50 (hSGK2) is reported as over 20 µM, the IC50 (hSNRK) is reported as over 20 µM and the IC50 (hRSK1(Kin.Dom.2-C-term)) is reported as over 20 µM. The IC50 (hFGFR2) was over 20 µM, the IC50 (hBLK) was over 20 µM and the IC50 (hMEK1) was over 20 µM. The IC50 (hDDR2) was over 20 µM, the IC50 (hFGFR3(G697C)) was over 20 µM and the IC50 (mono-methyl-Lys370 p53) was 0.6 µM. The IC50 (hRIOK3) was over 20 µM, the IC50 (hLZK) was over 20 µM and the IC50 (hMET(M1250T)) was over 20 µM. The “% Effect, Stimulation” value (hD2L) was 10.1%, the IC50 (hSNARK) was over 20 µM and the IC50 (hSTK33) was over 20 µM. The IC50 (hJAK2(JH1Dom.-catalytic)) was over 20 µM, the “% Effect, Stimulation” value (hADRα1A) was -1.9% and the IC50 (hEPHA3) was over 20 µM. For the same compound, the IC50 (hGRK1) was over 20 µM, the IC50 (hTESK1) was over 20 µM and the IC50 (hSYK) was over 20 µM. For the same compound, the IC50 (hBTK) was over 20 µM, the IC50 (hEGFR) was over 20 µM and the IC50 (hIKK-epsilon) was over 20 µM.
